From patent US11911386B2, “Methods of treating B-cell proliferative disorder” (BeiGene Switzerland GmbH, priority 2022, dated 2024)

Tests used:
[1] = cited from earlier work
panel of 370 kinases = test: Kinome profiling at 100xIC50 (BTK) concentrations; format: biochemical; conditions: 100×IC50 (BTK) concentration
[2] = RESONATE / RESONATE2 trials: ibrutinib effect (non-inferiority margin derivation); format: in vivo, human
[3] = cited from earlier work; remark: listed apart in the source
CYP3A = conditions: coadministration of rifabutin with midazolam; cited from earlier work
[4] = Phase 1 DDI study: treatment-emergent adverse events; format: in vivo, human; conditions: N = 13
Protocol: Safety was assessed by monitoring and recording of adverse events (AEs), serious adverse events (SAEs), clinical laboratory tests, physical examinations, and vital signs. […] A TEAE was defined as an AE that started during or after the first dose or started before the first dose and increased in severity after the first dose. AEs were classified based on MedDRA Version 24.0.
Safety and tolerability were assessed, when applicable, by incidence, severity, change from baseline values, and abnormal values for all relevant parameters such as AEs, laboratory parameters, vital signs, and physical examination.

[5] = phase 3, relapsed/refractory CLL

| SMILES | Arthralgia, any grade [1, 5] [%] | Atrial fibrillation, any grade [1, 5] [%] | Cough [1, 5] [%] | Fatigue grade ≥3 [1, 5] [%] | Headaches [1, 5] [%] | Hypertension, any grade [1, 5] [%] | Infections grade ≥3 [1, 5] [%] | Off-target kinases inhibited (panel of 370 kinases) [kinases] | AEs leading to treatment discontinuation ([1]; long-term follow-up, 132 patients) [%] | Pooled PFS HR, fixed-effect meta-analysis [2] | Decrease of systemic levels after multiple doses (auto-induction) ([3]; in vivo) [%] | Mean t1/2 (standard deviation) ([3]; single oral dose of 300 mg) | Tmax ([3]; single oral dose of 300 mg) [h] | Reduction in midazolam exposure (CYP3A) | Chromaturia TEAE [4] | Overall TEAEs [4] | Renal and urinary disorders TEAE [4] |
| --- | --- | --- | --- | --- | --- | --- | --- | --- | --- | --- | --- | --- | --- | --- | --- | --- | --- |
| CC#CC(=O)N1CCC[C@H]1c1nc(-c2ccc(C(=O)Nc3ccccn3)cc2)c2c(N)nccn12 [acalabrutinib] | 15.8 | 9.0 | 28.9 | 3.4 | 34.6 | 8.6 | 30.8 | 15 |  |  |  |  |  |  |  |  |  |
| C=CC(=O)N1CCC[C@@H](n2nc(-c3ccc(Oc4ccccc4)cc3)c3c(N)ncnc32)C1 [ibrutinib, 1-[(3R)-3-[4-amino-3-(4-phenoxyphenyl)-1H-pyrazolo[3,4-d]pyrimidin-1-yl]-1-piperidinyl]-2-propen-1-one] |  |  |  |  |  |  |  | 17 | 13 | 0.120 |  |  |  |  |  |  |  |
| CO[C@H]1/C=C/O[C@@]2(C)Oc3c(C)c(O)c4c(c3C2=O)C2=NC3(CCN(CC(C)C)CC3)NC2=C(NC(=O)/C(C)=C\C=C\[C@H](C)[C@H](O)[C@@H](C)[C@@H](O)[C@@H](C)[C@H](OC(C)=O)[C@@H]1C)C4=O [rifabutin] |  |  |  |  |  |  |  |  |  |  | 38 | 45 (standard deviation, 17) hours | 2 to 4 | ≈ 3.2 fold | 6 (46.2) n (%) | 6 (46.2) n (%) | 6 (46.2) n (%) |
